# Laboratory results published in patent US9133181B2, “Substituted 6-(4-hydroxy-phenyl)-1H-pyrazolo[3,4-b]pyridine derivatives as kinase inhibitors” (SANOFI, priority 2012, dated 2015).
# Target: T1, human full-length recombinant PKC βII (Homo sapiens, UniProt P05771)
# T1 construct: Active human full-length recombinant PKC βII; purchased Invitrogen GmbH, Darmstadt, Germany
# Assay: Determination of PKC βII inhibition (Caliper mobility shift kinase assay)
# Format: biochemical
# Details: final compound concentration 1.14 μM (±0.15 μM); 60 min incubation at 32° C.
# Outline: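 Compound was tested at a final 1.14 µM (±0.15 µM), with % inhibition derived from the product/(substrate+product) peak ratio on a Caliper mobility-shift read-out. Full-length PKC βII was activated by CaCl2, PS and DAG in pH 7.4 Hepes/MgCl2. Peptide and ATP were at 3 µM and 120 µM in the added mix. Incubation was 60 min at 32 °C.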
# T1 sequence (P05771 1-673 isoform P05771-2): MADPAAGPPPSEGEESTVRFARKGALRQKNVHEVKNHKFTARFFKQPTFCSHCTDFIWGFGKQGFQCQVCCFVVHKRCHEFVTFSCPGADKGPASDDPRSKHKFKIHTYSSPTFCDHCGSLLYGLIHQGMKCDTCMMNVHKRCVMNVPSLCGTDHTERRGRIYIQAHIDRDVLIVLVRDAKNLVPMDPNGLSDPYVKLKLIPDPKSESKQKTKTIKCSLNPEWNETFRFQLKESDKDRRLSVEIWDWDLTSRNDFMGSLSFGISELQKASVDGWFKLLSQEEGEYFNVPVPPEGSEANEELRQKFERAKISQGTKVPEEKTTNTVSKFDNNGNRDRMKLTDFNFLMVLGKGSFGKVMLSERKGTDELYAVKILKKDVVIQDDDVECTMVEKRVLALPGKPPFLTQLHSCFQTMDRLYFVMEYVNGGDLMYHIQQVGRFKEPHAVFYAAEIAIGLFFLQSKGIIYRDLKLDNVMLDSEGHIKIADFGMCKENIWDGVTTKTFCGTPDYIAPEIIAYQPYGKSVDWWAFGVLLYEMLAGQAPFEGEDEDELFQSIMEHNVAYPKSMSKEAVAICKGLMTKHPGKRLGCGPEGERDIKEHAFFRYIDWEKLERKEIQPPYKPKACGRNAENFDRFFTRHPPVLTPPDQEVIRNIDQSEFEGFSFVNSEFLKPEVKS
row,SMILES,inhibition at 1.14 µM
1,"Cc1n[nH]c2nc(-c3ccc(O)cc3F)cc(CN3C[C@@H](C)NCC34CCCC4)c12 [Example 128, 3-Fluoro-4-[3-methyl-4-((R)-8-methyl-6,9-diaza-spiro[4.5]dec-6-ylmethyl)-1H-pyrazolo[3,4-b]pyridin-6-yl]-phenol]",71%
2,"Cc1n[nH]c2nc(-c3ccc(O)cc3F)cc(CN3C[C@H](C(C)C)NCC3(C)C)c12 [Example 129, 3-Fluoro-4-[4-((S)-5-isopropyl-2,2-dimethyl-piperazin-1-ylmethyl)-3-methyl-1H-pyrazolo[3,4-b]pyridin-6-yl]-phenol]",97%
3,"Cc1n[nH]c2nc(-c3ccc(O)cc3F)cc(CN3C[C@@H](C(C)C)NCC3(C)C)c12 [Example 130, 3-Fluoro-4-[4-((R)-5-isopropyl-2,2-dimethyl-piperazin-1-ylmethyl)-3-methyl-1H-pyrazolo[3,4-b]pyridin-6-yl]-phenol]",98%
4,"Cc1n[nH]c2nc(-c3ccc(O)cc3)cc(CN3C[C@H](C)NCC3(C)C)c12 [Example 131, 4-[3-Methyl-4-((S)-2,2,5-trimethyl-piperazin-1-ylmethyl)-1H-pyrazolo[3,4-b]pyridin-6-yl]-phenol]",103%
5,"Cc1n[nH]c2nc(-c3ccc(O)cc3)cc(CN3C[C@@H](C)NCC3(C)C)c12 [Example 132, 4-[3-Methyl-4-((R)-2,2,5-trimethyl-piperazin-1-ylmethyl)-1H-pyrazolo[3,4-b]pyridin-6-yl]-phenol]",97%
6,"Cc1n[nH]c2nc(-c3ccc(O)cc3F)cc(CN3CC(C)(C)NC[C@@H]3C(C)C)c12 [Example 133, 3-Fluoro-4-[4-((S)-2-isopropyl-5,5-dimethyl-piperazin-1-ylmethyl)-3-methyl-1H-pyrazolo[3,4-b]pyridin-6-yl]-phenol]",103%
7,"Cc1n[nH]c2nc(-c3ccc(O)cc3F)cc(CN3CC(C)(C)NC[C@H]3C(C)C)c12 [Example 134, 3-Fluoro-4-[4-((R)-2-isopropyl-5,5-dimethyl-piperazin-1-ylmethyl)-3-methyl-1H-pyrazolo[3,4-b]pyridin-6-yl]-phenol]",102%
8,"CC[C@]1(C)CN(Cc2cc(-c3ccc(O)cc3F)nc3[nH]nc(C)c23)C(C)(C)CN1 [Example 135, 4-[4-((R)-5-Ethyl-2,2,5-trimethyl-piperazin-1-ylmethyl)-3-methyl-1H-pyrazolo[3,4-b]pyridin-6-yl]-3-fluoro-phenol]",106%
9,"CC[C@@]1(C)CN(Cc2cc(-c3ccc(O)cc3F)nc3[nH]nc(C)c23)C(C)(C)CN1 [Example 136, 4-[4-((S)-5-Ethyl-2,2,5-trimethyl-piperazin-1-ylmethyl)-3-methyl-1H-pyrazolo[3,4-b]pyridin-6-yl]-3-fluoro-phenol]",104%
10,"Cc1n[nH]c2nc(-c3ccc(O)cc3F)cc(CN3CC4(CCCC4)NC[C@@H]3C)c12 [Example 137, 3-Fluoro-4-[3-methyl-4-((S)-8-methyl-6,9-diaza-spiro[4.5]dec-9-ylmethyl)-1H-pyrazolo[3,4-b]pyridin-6-yl]-phenol]",98%
11,"Cc1n[nH]c2nc(-c3ccc(O)cc3F)cc(CN3CC4(CCCC4)NC[C@H]3C)c12 [Example 138, 3-Fluoro-4-[3-methyl-4-((R)-8-methyl-6,9-diaza-spiro[4.5]dec-9-ylmethyl)-1H-pyrazolo[3,4-b]pyridin-6-yl]-phenol]",98%
12,"Cc1n[nH]c2nc(-c3ccc(O)cc3)cc(CN3CC(C)(C)NC[C@@H]3C)c12 [Example 139, 4-[3-Methyl-4-((S)-2,5,5-trimethyl-piperazin-1-ylmethyl)-1H-pyrazolo[3,4-b]pyridin-6-yl]-phenol]",95%
13,"Cc1n[nH]c2nc(-c3ccc(O)cc3)cc(CN3CC(C)(C)NC[C@H]3C)c12 [Example 140, 4-[3-Methyl-4-((R)-2,5,5-trimethyl-piperazin-1-ylmethyl)-1H-pyrazolo[3,4-b]pyridin-6-yl]-phenol]",98%
14,"CC[C@]1(C)CNC(C)(C)CN1Cc1cc(-c2ccc(O)cc2)nc2[nH]nc(C)c12 [Example 141, 4-[4-((R)-2-Ethyl-2,5,5-trimethyl-piperazin-1-ylmethyl)-3-methyl-1H-pyrazolo[3,4-b]pyridin-6-yl]-phenol]",98%
15,"CC[C@@]1(C)CNC(C)(C)CN1Cc1cc(-c2ccc(O)cc2)nc2[nH]nc(C)c12 [Example 142, 4-[4-((S)-2-Ethyl-2,5,5-trimethyl-piperazin-1-ylmethyl)-3-methyl-1H-pyrazolo[3,4-b]pyridin-6-yl]-phenol]",100%
16,"CC[C@H]1CNC(C)(C)CN1Cc1cc(-c2ccc(O)cc2F)nc2[nH]nc(C)c12 [Example 143, 4-[4-((S)-2-Ethyl-5,5-dimethyl-piperazin-1-ylmethyl)-3-methyl-1H-pyrazolo[3,4-b]pyridin-6-yl]-3-fluoro-phenol]",101%
17,"CC[C@@H]1CNC(C)(C)CN1Cc1cc(-c2ccc(O)cc2F)nc2[nH]nc(C)c12 [Example 144, 4-[4-((R)-2-Ethyl-5,5-dimethyl-piperazin-1-ylmethyl)-3-methyl-1H-pyrazolo[3,4-b]pyridin-6-yl]-3-fluoro-phenol]",98%
18,"CC[C@H]1CNC(C)(C)CN1Cc1cc(-c2ccc(O)cc2)nc2[nH]nc(C)c12 [Example 145, 4-[4-((S)-2-Ethyl-5,5-dimethyl-piperazin-1-ylmethyl)-3-methyl-1H-pyrazolo[3,4-b]pyridin-6-yl]-phenol]",95%
19,"CC[C@@H]1CNC(C)(C)CN1Cc1cc(-c2ccc(O)cc2)nc2[nH]nc(C)c12 [Example 146, 4-[4-((R)-2-Ethyl-5,5-dimethyl-piperazin-1-ylmethyl)-3-methyl-1H-pyrazolo[3,4-b]pyridin-6-yl]-phenol]",99%
20,"Cc1n[nH]c2nc(-c3ccc(O)cc3F)cc(CN3CCC[C@](C)(N)C3)c12 [Example 147, 4-[4-((S)-3-Amino-3-methyl-piperidin-1-ylmethyl)-3-methyl-1H-pyrazolo[3,4-b]pyridin-6-yl]-3-fluoro-phenol]",100%
21,"Cc1n[nH]c2nc(-c3ccc(O)cc3F)cc(CN3CCC[C@@](C)(N)C3)c12 [Example 148, 4-[4-((R)-3-Amino-3-methyl-piperidin-1-ylmethyl)-3-methyl-1H-pyrazolo[3,4-b]pyridin-6-yl]-3-fluoro-phenol]",99%
22,"Cc1n[nH]c2nc(-c3ccc(O)cc3F)cc(CN3C[C@@](C)(C4CC4)NCC3(C)C)c12 [Example 149, 4-[4-((R)-5-Cyclopropyl-2,2,5-trimethyl-piperazin-1-ylmethyl)-3-methyl-1H-pyrazolo[3,4-b]pyridin-6-yl]-3-fluoro-phenol]",98%
23,"Cc1n[nH]c2nc(-c3ccc(O)cc3F)cc(CN3C[C@](C)(C4CC4)NCC3(C)C)c12 [Example 150, 4-[4-((S)-5-Cyclopropyl-2,2,5-trimethyl-piperazin-1-ylmethyl)-3-methyl-1H-pyrazolo[3,4-b]pyridin-6-yl]-3-fluoro-phenol]",100%
24,"Cc1n[nH]c2nc(-c3ccc(O)cc3F)cc(CN3C[C@H](C)NC[C@@H]3C(F)(F)F)c12 [Example 151, 3-Fluoro-4-[3-methyl-4-((2R,5S)-5-methyl-2-trifluoromethyl-piperazin-1-ylmethyl)-1H-pyrazolo[3,4-b]pyridin-6-yl]-phenol]",90%
25,"Cc1n[nH]c2nc(-c3ccc(O)cc3F)cc(CN3C[C@@H](C)NC[C@@H]3C(F)(F)F)c12 [Example 152, 3-Fluoro-4-[3-methyl-4-((2R,5R)-5-methyl-2-trifluoromethyl-piperazin-1-ylmethyl)-1H-pyrazolo[3,4-b]pyridin-6-yl]-phenol]",93%
26,"Cc1n[nH]c2nc(-c3ccc(O)cc3F)cc(CN3C[C@@H](C)NC[C@H]3C(F)(F)F)c12 [Example 153, 3-Fluoro-4-[3-methyl-4-((2S,5R)-5-methyl-2-trifluoromethyl-piperazin-1-ylmethyl)-1H-pyrazolo[3,4-b]pyridin-6-yl]-phenol]",97%
27,"Cc1n[nH]c2nc(-c3ccc(O)cc3F)cc(CN3C[C@H](C)NC[C@H]3C(F)(F)F)c12 [Example 154, 3-Fluoro-4-[3-methyl-4-((2S,5S)-5-methyl-2-trifluoromethyl-piperazin-1-ylmethyl)-1H-pyrazolo[3,4-b]pyridin-6-yl]-phenol]",92%
